Biological target: Vascular endothelial growth factor receptor 2 (Homo sapiens, UniProt P35968)
Assay: Inhibition of KDR (unknown origin)

Chain of Vascular endothelial growth factor receptor 2 (P35968 whole entry): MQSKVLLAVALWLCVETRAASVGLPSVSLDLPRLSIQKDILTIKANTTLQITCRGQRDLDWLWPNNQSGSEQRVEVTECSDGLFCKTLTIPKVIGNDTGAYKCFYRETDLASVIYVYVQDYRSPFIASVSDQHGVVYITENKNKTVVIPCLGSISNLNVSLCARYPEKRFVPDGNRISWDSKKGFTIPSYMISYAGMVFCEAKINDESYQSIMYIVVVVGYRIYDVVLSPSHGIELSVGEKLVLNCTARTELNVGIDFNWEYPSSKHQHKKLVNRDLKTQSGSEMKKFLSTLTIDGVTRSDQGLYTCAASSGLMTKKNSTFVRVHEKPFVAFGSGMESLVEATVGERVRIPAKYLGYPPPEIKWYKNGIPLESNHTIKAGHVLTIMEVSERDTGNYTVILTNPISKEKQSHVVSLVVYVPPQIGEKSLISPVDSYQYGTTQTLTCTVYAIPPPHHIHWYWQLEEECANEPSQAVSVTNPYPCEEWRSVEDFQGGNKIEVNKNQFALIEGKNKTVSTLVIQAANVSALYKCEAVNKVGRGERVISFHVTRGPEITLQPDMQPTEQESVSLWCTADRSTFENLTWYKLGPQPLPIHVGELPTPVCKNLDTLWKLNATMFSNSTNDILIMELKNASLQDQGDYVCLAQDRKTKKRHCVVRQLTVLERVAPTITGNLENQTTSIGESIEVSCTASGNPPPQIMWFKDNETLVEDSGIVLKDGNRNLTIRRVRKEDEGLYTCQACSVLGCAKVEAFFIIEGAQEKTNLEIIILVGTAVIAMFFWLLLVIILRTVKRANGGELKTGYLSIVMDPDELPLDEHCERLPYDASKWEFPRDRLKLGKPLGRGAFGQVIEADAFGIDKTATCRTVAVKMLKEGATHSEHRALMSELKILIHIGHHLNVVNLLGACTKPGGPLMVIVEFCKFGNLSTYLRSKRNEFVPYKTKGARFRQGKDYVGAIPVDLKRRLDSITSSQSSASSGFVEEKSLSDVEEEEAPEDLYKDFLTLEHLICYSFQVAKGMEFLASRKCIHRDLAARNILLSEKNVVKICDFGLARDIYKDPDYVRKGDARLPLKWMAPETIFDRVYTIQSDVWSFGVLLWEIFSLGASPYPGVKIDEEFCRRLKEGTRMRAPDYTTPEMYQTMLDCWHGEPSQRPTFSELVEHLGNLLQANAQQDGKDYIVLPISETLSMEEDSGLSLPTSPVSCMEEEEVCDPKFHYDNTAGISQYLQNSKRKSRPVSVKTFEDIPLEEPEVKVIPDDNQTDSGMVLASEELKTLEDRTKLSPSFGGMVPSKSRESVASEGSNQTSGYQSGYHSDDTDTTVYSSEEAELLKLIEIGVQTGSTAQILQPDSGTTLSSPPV

SMILES	IC50 [µM]
Nc1cc(-c2ccc(NC(=O)Nc3cccc(C(F)(F)F)c3)cc2)on1	> 10
CC(C)(C)c1cc(NC(=O)Nc2ccc(-c3cc(N)no3)cc2)no1	> 10

Source: ChEMBL document CHEMBL3808391, “Evolution of a New Class of VEGFR-2 Inhibitors from Scaffold Morphing and Redesign” (ACS Med Chem Lett, 2016)
